Reference: patent publication US5714488A, “Bis-heteroarylylmethoxyphenyl ketone derivatives as inhibitors of leukotriene biosynthesis” (Abbott Laboratories, priority 1996, dated 1998)
Counter-ions that a name gives are not always drawn.

Tests used:
leukotriene biosynthesis = test: In vivo leukotriene inhibition, Ionophore A23187-Induced Rat Pleural Inflammation Model; settings: 3.O mg/kg; male rats; dosed in 0.2% methocel one hour prior to intrapleural A23187 (20 μg); lavage after thirty minutes
Procedure: Inhibition of leukotriene biosynthesis in vivo was evaluated using the Ionophore A23187-Induced Rat Pleural Inflammation Model. Pleural inflammation was induced in male rats following the method of Rao, et al. (Rao, T. S., Currie, J. L., Shaffer, A. F., Isakson, P. C., Evaluation of 5-lipoxygenase Inhibitors, Zileuton, A-78773 and ICI D-2138 in an Ionophore (A-23187) Induced Pleural Inflammation Model in the Rat, Life Sciences, 53, 147 (1993)). Rats were dosed with experimental compounds in 0.2% methocel one hour prior to the intrapleural injection of the calcium ionophore, A23187. The rats where lightly anesthetized with Pentrane (Abbott Laboratories) and injected intrapleurally with 0.5 ml of 2% ethanol in injectable saline (Abbott Laboratories) containing 20 μg of A23187 (Cal BioChem-Novabiochem). Thirty minutes later the animals were euthanised and the pleural cavities lavaged with ice cold saline (Abbott Laboratories). The lavage fluid was then added to ice cold methanol (final methanol concentration 30%) to lyse cells and precipitate protein. Eicosanoids were determined by enzyme immunoassay by standard methods.

5-Lipoxygenase = test: Inhibition of calcium ionophore-induced LTB4 formation in human polymorphonuclear leukocytes (PMNL); format: cell-based; settings: 15 min preincubation, calcium ionophore 8.3 μM, 10 min at 37° C., LTB4 by enzyme-linked immunoassay or HPLC, read-out: IC50 (In Vitro Inhibitory Potencies Against 5-Lipoxygenase From Stimulated LTB4 Formation in Human Polymorphonuclear Leukocytes)
Procedure: Inhibition of leukotriene biosynthesis was evaluated in vitro using an assay involving calcium ionophore-induced LTB4 expressed in human polymorphornuclear leukocytes (PMNL). Human PMNL isolated from heparinized (20 USP units/mL) venous blood (25 mL) obtained from healthy volunteers was layered over an equal volume of Ficoll-Hypaque Mono-Poly Resolving Medium (ICN Flow, Costa Mesa, CA) and centrifugated at 400×g for 40 minutes at 20° C. The PMNL was collected, erythrocytes lysed and washed 2× and suspended at 1.0×10^7 cells/mL in Earle's balanced salt solution with 17 mM Earle's HEPES. Aliquots of the cell suspension were preincubated with test compounds dissolved in DMSO (final concentration <2%) for 15 minutes and stimulated with calcium ionophore (final concentration 8.3 μM) for 10 min. at 37° C. Incubations were stopped with the addition of two volumes of ice-cold methanol followed by centrifuging the cell suspensions at 4° C. for 10 minutes at 450×g. The amount of LTB4 in the methanol extract was analyzed by enzyme-linked immunoassay or by HPLC analysis.

Row | Structure (SMILES) | IC50 (5-Lipoxygenase) [nM] | % Inhibition (In Vivo Leukotriene Inhibition in Rat Pleural Inflammation) (leukotriene biosynthesis) [%]
1 | O=C(O)C=C(c1ccc(OCc2ccc3ccccc3n2)cc1)c1ccc(OCc2ccc3ccccc3n2)cc1 [Example 11] | 50 | –
2 | O=C(O)CON=C(c1ccc(OCc2ccc3ccc(Cl)cc3n2)cc1)c1ccc(OCc2ccc3ccc(Cl)cc3n2)cc1 [Example 6, bis(4-(7-chloro-2-quinolylmethoxy)phenyl)methyloximinoaceticacid] | 220 | –
3 | ON=C(c1ccc(OCc2ccc3ccccc3n2)cc1)c1ccc(OCc2ccc3ccccc3n2)cc1 [Example 2, bis(4-(2-quinolylmethoxy)phenyl) ketoxime] | 40 | –

The remaining compounds from weak to strong by IC50 (5-Lipoxygenase), led by results:

Row | IC50 (5-Lipoxygenase) [nM] | Structure (SMILES) | % Inhibition (In Vivo Leukotriene Inhibition in Rat Pleural Inflammation) (leukotriene biosynthesis) [%]
4 | 40 | O=C(O)CON=C(c1ccc(OCc2nc3ccccc3s2)cc1)c1ccc(OCc2nc3ccccc3s2)cc1 [Example 9, bis(4-(2-benzothiazoylmethoxy)-phenyl)methyloximinoacetic acid sodium salt] | –
5 | 32 | O=C(O)CON=C(c1ccc(OCc2ccc3ccccc3n2)cc1)c1ccc(OCc2ccc3ccccc3n2)cc1 [Example 1, bis(4-(2-quinolylmethoxy)phenyl)methyloximinoacetic acid] | –
6 | 26 | O=C(O)CON=CC=C(c1ccc(OCc2ccc3ccccc3n2)cc1)c1ccc(OCc2ccc3ccccc3n2)cc1 [Example 12] | 60
